Results: US20120142705A1, “ISATIN AND OXINDOLE COMPOUNDS” (priority 2010, published 2012)

molecular target: T1, Recombinant human liver GK1 (GST-GK) (Homo sapiens, UniProt P35557); assay: In vitro glucokinase activity, G6PDH-coupled spectrophotometric assay; type: biochemical; conditions: 5 mM D-glucose, 30° C., pH 7.1
T1 construct: made in house; host or cells: E. coli
T1 sequence (P35557 1-466 isoform P35557-2): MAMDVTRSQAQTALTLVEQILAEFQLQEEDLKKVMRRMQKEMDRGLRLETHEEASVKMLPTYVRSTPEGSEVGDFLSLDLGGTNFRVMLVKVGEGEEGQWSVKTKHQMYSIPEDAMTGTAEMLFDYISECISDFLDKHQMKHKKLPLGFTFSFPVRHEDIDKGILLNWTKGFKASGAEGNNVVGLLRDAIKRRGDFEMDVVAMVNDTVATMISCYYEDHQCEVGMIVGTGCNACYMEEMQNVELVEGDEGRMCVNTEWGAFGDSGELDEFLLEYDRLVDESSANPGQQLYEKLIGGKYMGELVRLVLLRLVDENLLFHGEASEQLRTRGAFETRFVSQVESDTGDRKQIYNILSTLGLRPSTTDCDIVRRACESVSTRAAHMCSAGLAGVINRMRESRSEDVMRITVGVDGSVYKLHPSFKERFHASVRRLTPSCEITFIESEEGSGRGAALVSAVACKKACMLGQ
Method: Glucokinase In Vitro Assay Protocol: Glucokinase (GK) was assayed by coupling the production of glucose-6-phosphate to the generation of NADH with glucose-6-phosphate dehydrogenase (G6PDH, 0.75-1 kunits/mg; Boehringer Mannheim, Indianapolis, Ind.) from Leuconostoc mesenteroides as the coupling enzyme (Scheme 2).
Recombinant human liver GK1 was expressed in E. coli as a glutathione S-transferase fusion protein (GST-GK) [Liang et al, 1995] and was purified by chromatography over a glutathione-Sepharose 4B affinity column using the procedure provided by the manufacturer (Amersham Pharmacia Biotech, Piscataway, N.J.).
The assay was conducted at 30° C. in a flat bottom 96-well tissue culture plate from Costar (Cambridge, Mass.) with a final incubation volume of 120 μL. The incubation reaction contained the following: 25 mM Hepes buffer (pH 7.1), 25 mM KCl, 5 mM D-glucose, 1 mM ATP, 1.8 mM NAD, 2 mM MgCl2, 1 μM sorbitol-6-phosphate, 1 mM dithiothreitol, test drug or 10% dimethylsulfoxide, ˜7 units/ml G6PDH, and GK (see below). All organic reagents were >98% pure and were from Boehringer Mannheim with the exceptions of D-glucose and Hepes which were from Sigma Chemical Co, St Louis, Mo. Test compounds were dissolved in dimethylsulfoxide and were added to the incubation reaction minus GST-GK in a volume of 12 μL to yield a final dimethylsulfoxide concentration of 10%. This mix was pre-incubated in the temperature controlled chamber of a SPECTRAmax 250 microplate spectrophotometer (Molecular Devices Corporation, Sunnyvale, Calif.) for 10 minutes to allow temperature equilibrium and then the reaction was started by the addition of 20 μL GST-GK.
After addition of enzyme, the increase in optical density (OD) at 340 nm was monitored spectrophotometrically to determine the rate of change (OD340 per min). The GK activity (OD340/min) in control wells (10% dimethylsulfoxide minus GK activators) was compared with the activity in wells containing test GK activators, and the concentration of activator that produced a 50% increase in the activity of GK, i.e., the SC1.5, was calculated.

SMILES	SC1.5 (concentration of activator that produced a 50% increase in the activity of GK)
Cn1ccc(NC(=O)C(CC2CCCC2)N2C(=O)Cc3cc(Cl)ccc32)n1 (stereo not drawn) [Example 99, 2-(5-Chloro-2-oxo-2,3-dihydro-indol-1-yl)-3-cyclopentyl-N-(1-methyl-1H-pyrazol-3-yl)-propionamide]	3.3 µM
O=C(Nc1ccccn1)C(CC1CCCC1)N1C(=O)Cc2cc(OC(F)(F)F)ccc21 (stereo not drawn) [Example 33, 3-Cyclopentyl-2-(2-oxo-5-trifluoromethoxy-2,3-dihydro-indol-1-yl)-N-pyridin-2-yl-propionamide]	0.13 µM
O=C(Nc1cnccn1)C(CC1CCCC1)N1C(=O)Cc2ccc(Cl)cc21 (stereo not drawn) [Example 121, 2-(6-Chloro-2-oxo-2,3-dihydro-indol-1-yl)-3-cyclopentyl-N-pyrazin-2-yl-propionamide]	0.38 µM
O=C(Nc1cnccn1)C(CC1CCCC1)N1C(=O)Cc2cc(Br)ccc21 (stereo not drawn) [Example 67, 2-(5-Bromo-2-oxo-2,3-dihydro-indol-1-yl)-3-cyclopentyl-N-pyrazin-2-yl-propionamide]	1.28 µM
Cn1ccc(NC(=O)C(CC2CCCC2)N2C(=O)C(=O)c3ccc(Cl)cc32)n1 (stereo not drawn) [Example 119, 2-(6-Chloro-2,3-dioxo-2,3-dihydro-indol-1-yl)-3-cyclopentyl-N-(1-methyl-1H-pyrazol-3-yl)-propionamide]	2.24 µM
CC(C)CC(C(=O)Nc1ccn(C)n1)N1C(=O)C(=O)c2cc(OC(F)(F)F)ccc21 (stereo not drawn) [Example 39, 2-(2,3-Dioxo-5-trifluoromethoxy-2,3-dihydro-indol-1-yl)-4-methyl-pentanoic acid (1-methyl-1H-pyrazol-3-yl)-amide]	21.28 µM
Cc1ccc2c(c1)C(=O)C(=O)N2C(CC1CCCC1)C(=O)Nc1nccs1 (stereo not drawn) [Example 79, 3-Cyclopentyl-2-(5-methyl-2,3-dioxo-2,3-dihydro-indol-1-yl)-N-thiazol-2-yl-propionamide]	16.22 µM
O=C1C(=O)N(C(CC2CCCC2)C(=O)Nc2ccccn2)c2ccccc21 (stereo not drawn) [Example 6, 3-Cyclopentyl-2-(2,3-dioxo-2,3-dihydro-indol-1-yl)-N-pyridin-2-yl-propionamide]	5.19 µM
COc1ccc2c(c1)CC(=O)N2C(CC1CCCC1)C(=O)Nc1nccs1 (stereo not drawn) [Example 51, 3-Cyclopentyl-2-(5-methoxy-2-oxo-2,3-dihydro-indol-1-yl)-N-thiazol-2-yl-propionamide]	3.6 µM
O=C(Nc1nccs1)C(CC1CCCC1)N1C(=O)Cc2ccccc21 (stereo not drawn) [Example 3, 3-Cyclopentyl-2-(2-oxo-2,3-dihydro-indol-1-yl)-N-thiazol-2-yl-propionamide]	3.3 µM
Cn1ccc(NC(=O)C(CC2CCCC2)N2C(=O)C(=O)c3cc(Br)ccc32)n1 (stereo not drawn) [Example 62, 2-(5-Bromo-2,3-dioxo-2,3-dihydro-indol-1-yl)-3-cyclopentyl-N-(1-methyl-1H-pyrazol-3-yl)-propionamide]	6.18 µM
COc1ccc2c(c1)C(=O)C(=O)N2C(CC1CCCC1)C(=O)Nc1ccn(C)n1 (stereo not drawn) [Example 47, 3-Cyclopentyl-2-(5-methoxy-2,3-dioxo-2,3-dihydro-indol-1-yl)-N-(1-methyl-1H-pyrazol-3-yl)-propionamide]	23.88 µM
O=C(Nc1cnccn1)C(CC1CCCC1)N1C(=O)Cc2c(Cl)cccc21 (stereo not drawn) [Example 24, 2-(4-Chloro-2-oxo-2,3-dihydro-indol-1-yl)-3-cyclopentyl-N-pyrazin-2-yl-propionamide]	2.66 µM
CC(C)CC(C(=O)Nc1cnccn1)N1C(=O)Cc2ccc(Cl)cc21 (stereo not drawn) [Example 113, 2-(6-Chloro-2-oxo-2,3-dihydro-indol-1-yl)-4-methyl-pentanoic acid pyrazin-2-ylamide]	2.64 µM
O=C(Nc1cnccn1)C(CC1CCCC1)N1C(=O)Cc2ccc(F)cc21 (stereo not drawn) [Example 128, 3-Cyclopentyl-2-(6-fluoro-2-oxo-2,3-dihydro-indol-1-yl)-N-pyrazin-2-yl-propionamide]	0.81 µM
Cn1ccc(NC(=O)C(CC2CCCC2)N2C(=O)Cc3ccc(Cl)cc32)n1 (stereo not drawn) [Example 124, 2-(6-Chloro-2-oxo-2,3-dihydro-indol-1-yl)-3-cyclopentyl-N-(1-methyl-1H-pyrazol-3-yl)-propionamide]	1.1 µM
Cn1ccc(NC(=O)C(CC2CCCC2)N2C(=O)Cc3ccc(Br)cc32)n1 (stereo not drawn) [Example 136, 2-(6-Bromo-2-oxo-2,3-dihydro-indol-1-yl)-3-cyclopentyl-N-(1-methyl-1H-pyrazol-3-yl)-propionamide]	0.88 µM
COc1ccc2c(c1)CC(=O)N2C(CC1CCCC1)C(=O)Nc1ccn(C)n1 (stereo not drawn) [Example 50, 3-Cyclopentyl-2-(5-methoxy-2-oxo-2,3-dihydro-indol-1-yl)-N-(1-methyl-1H-pyrazol-3-yl)-propionamide]	8.39 µM
O=C1C(=O)N(C(CC2CCCC2)C(=O)Nc2ccccn2)c2cccc(Cl)c21 (stereo not drawn) [Example 14, 2-(4-Chloro-2,3-dioxo-2,3-dihydro-indol-1-yl)-3-cyclopentyl-N-pyridin-2-yl-propionamide]	1.9 µM
O=C1C(=O)N(C(CC2CCCC2)C(=O)Nc2ccccn2)c2ccc(Br)cc21 (stereo not drawn) [Example 61, 2-(5-Bromo-2,3-dioxo-2,3-dihydro-indol-1-yl)-3-cyclopentyl-N-pyridin-2-yl-propionamide]	0.95 µM
CC(C)CC(C(=O)Nc1nccs1)N1C(=O)Cc2cc(Cl)ccc21 (stereo not drawn) [Example 105, 2-(5-Chloro-2-oxo-2,3-dihydro-indol-1-yl)-4-methyl-pentanoic acid thiazol-2-ylamide]	6.74 µM
O=C1C(=O)N(C(CC2CCCC2)C(=O)Nc2nccs2)c2ccccc21 (stereo not drawn) [Example 4, 3-Cyclopentyl-2-(2,3-dioxo-2,3-dihydro-indol-1-yl)-N-thiazol-2-yl-propionamide]	5.21 µM
O=C1C(=O)N(C(CC2CCCC2)C(=O)Nc2nccs2)c2cc(Cl)ccc21 (stereo not drawn) [Example 117, 2-(6-Chloro-2,3-dioxo-2,3-dihydro-indol-1-yl)-3-cyclopentyl-N-thiazol-2-yl-propionamide]	0.6 µM
CC(C)(O)Cn1ccc(NC(=O)C(CC2CCCC2)N2C(=O)Cc3ccccc32)n1 (stereo not drawn) [Example 59, 3-Cyclopentyl-N-[1-(2-hydroxy-2-methyl-propyl)-1H-pyrazol-3-yl]-2-(2-oxo-2,3-dihydro-indol-1-yl)-propionamide]	3.87 µM

same assay, conditions: @ 30 uM; 5 mM D-glucose, 30° C.

SMILES	fold induction at 30 µM
COc1ccc2c(c1)C(=O)C(=O)N2C(CC(C)C)C(=O)Nc1cnccn1 (stereo not drawn) [Example 53, 2-(5-Methoxy-2,3-dioxo-2,3-dihydro-indol-1-yl)-4-methyl-pentanoic acid pyrazin-2-ylamide]	1.16
CC(C)CC(C(=O)Nc1nccs1)N1C(=O)C(=O)c2ccccc21 (stereo not drawn) [Example 10, 2-(2,3-Dioxo-2,3-dihydro-indol-1-yl)-4-methyl-pentanoic acid thiazol-2-ylamide]	1.2
Cc1ccc2c(c1)C(=O)C(=O)N2C(CC(C)C)C(=O)Nc1nccs1 (stereo not drawn) [Example 87, 4-Methyl-2-(5-methyl-2,3-dioxo-2,3-dihydro-indol-1-yl)-pentanoic acid thiazol-2-ylamide]	1.16
